Results: article PMC2408655 (Journal of Neurochemistry, 2008)
Read-outs that look alike come from different tables or passages of the source.

Legend:
[1] = molecular target: Aβ fibrils; details: read-out: Kd and Ki values, Aβ, in vitro generated Aβ fibrils, cited from earlier work
[2] = molecular target: T1, α-synuclein (AS) filaments (Homo sapiens, UniProt P37840); experiment: Radioligand competition assay of α-synuclein; format: binding; details: for displacement of the radioligand from the AS filaments: [3H]-Me-BTA1 radioligand, Fig. 3b
[3] = molecular target: T1, α-synuclein (AS) filaments; experiment: Radioligand binding assay of α-synuclein

| displacement of the radioligand from the AS filaments [2] | fold weaker binding than BF1 ([2]; Ki relative to BF1) | Kd [3] [nM] | SMILES | Ki ([1]; ref Lockhart et al. 2005) [nM] | Kd ([1]; ref Lockhart et al. 2005) [nM] | Ki ([1]; ref Ye et al. 2005) [nM] |
| --- | --- | --- | --- | --- | --- | --- |
| dose-dependent displacement | – | – | CN(C)c1ccc(-c2cc3cc(Br)ccc3o2)cc1 [BF1, 5-bromo-2-(4-dimethylaminophenyl)benzofuran] | 3 | – | – |
| – | – | – | CNc1ccc(-c2nc3ccc(C)cc3s2)cc1 [Me-BTA1, 2-[4′-(methylamino)phenyl]-6-methylbenzothiazole] | – | 4.2 | – |
| dose-dependent displacement | around fourfold weaker | 4.16 | CNc1ccc(-c2nc3ccc(O)cc3s2)cc1 [PIB, 2-[4′-(methylamino)phenyl]-6-hydroxybenzothiazole] | – | – | 25 |
